Results taken from publication PMC10762177, “Novel betulin derivatives as multidrug reversal agents targeting P-glycoprotein” (Scientific Reports, 2024).
Several values for one entry are separate records, joined by “and”; a condition that tells them apart may be missing. Equal entries are not always repeated. Entries after “also recorded” stand apart in the source; their conditions may differ.

Experiments:
[1] = molecular target: T1, P-gp (Homo sapiens, UniProt P08183); design: MDR phenotype mainly characterized by the overexpression of ABCB1/P-gp; endogenous in cells; host or cells: K562/Dox (formerly Lucena 1), drug-selected and kept under 60 nM Dox; parental K562 used as the low-P-gp control; details: cited from earlier work
T1 sequence (P08183 whole entry): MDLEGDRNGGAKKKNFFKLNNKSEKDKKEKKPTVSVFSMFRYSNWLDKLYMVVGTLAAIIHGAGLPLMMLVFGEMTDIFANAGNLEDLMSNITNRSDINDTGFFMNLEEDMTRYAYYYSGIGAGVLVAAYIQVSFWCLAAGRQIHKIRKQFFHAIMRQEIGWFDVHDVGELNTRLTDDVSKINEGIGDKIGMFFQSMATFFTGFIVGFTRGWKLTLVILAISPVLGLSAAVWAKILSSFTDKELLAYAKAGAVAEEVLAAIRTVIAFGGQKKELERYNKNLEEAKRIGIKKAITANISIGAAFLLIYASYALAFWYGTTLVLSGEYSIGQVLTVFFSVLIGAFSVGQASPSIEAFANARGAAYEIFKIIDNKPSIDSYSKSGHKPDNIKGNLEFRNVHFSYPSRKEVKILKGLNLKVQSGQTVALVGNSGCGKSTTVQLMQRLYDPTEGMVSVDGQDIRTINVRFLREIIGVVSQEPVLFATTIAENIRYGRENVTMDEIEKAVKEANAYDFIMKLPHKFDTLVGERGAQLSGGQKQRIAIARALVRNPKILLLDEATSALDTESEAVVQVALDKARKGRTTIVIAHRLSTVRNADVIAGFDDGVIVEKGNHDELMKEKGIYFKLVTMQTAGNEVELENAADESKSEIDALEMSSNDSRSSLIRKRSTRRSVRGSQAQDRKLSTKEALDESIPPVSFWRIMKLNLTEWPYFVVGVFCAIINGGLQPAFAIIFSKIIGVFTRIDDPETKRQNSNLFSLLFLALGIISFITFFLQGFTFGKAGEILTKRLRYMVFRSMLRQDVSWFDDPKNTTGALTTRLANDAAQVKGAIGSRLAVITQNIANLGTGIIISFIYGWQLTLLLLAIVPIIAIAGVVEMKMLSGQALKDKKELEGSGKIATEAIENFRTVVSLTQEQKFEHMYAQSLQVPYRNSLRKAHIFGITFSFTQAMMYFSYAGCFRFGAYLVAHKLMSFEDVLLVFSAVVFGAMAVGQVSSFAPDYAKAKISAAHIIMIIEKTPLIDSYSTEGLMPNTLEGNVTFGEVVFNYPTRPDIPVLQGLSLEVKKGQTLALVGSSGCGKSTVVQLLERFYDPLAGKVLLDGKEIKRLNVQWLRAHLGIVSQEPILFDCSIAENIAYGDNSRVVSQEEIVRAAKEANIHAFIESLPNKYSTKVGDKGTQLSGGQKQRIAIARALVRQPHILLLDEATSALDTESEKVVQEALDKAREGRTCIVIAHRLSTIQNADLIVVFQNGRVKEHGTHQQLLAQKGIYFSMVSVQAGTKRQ

[2] = system: erythrocytes; experiment: Erythrocyte hemolysis assay; type: cell-based, human; details: maximum tested concentration of 50 µM, 1 h
Method: For the erythrocyte hemolysis assay, the red blood cell suspension was obtained from fresh heparinized blood collected from healthy human volunteer donors, without receiving any treatment. The blood sample was centrifuged at 2,500 rpm for 10 min at 4 °C. The supernatant was discarded, and the red blood cell pellet was subjected to two consecutive washes with sterile PBS, using the same centrifugation conditions. An aliquot of the pellet obtained was resuspended in PBS (3% v/v). The compounds were incubated at decreasing concentrations starting from 50 µM with the suspension at 37 °C for 1 h. Controls with 1% DMSO and no solvent were included.

[3] = molecular target: T1, P-gp; experiment: Doxorubicin intracellular accumulation assay in K562/Dox (flow cytometry)
[4] = system: K562/Dox cells; experiment: Doxorubicin resistance reversal assay in K562/Dox (MTT); details: for FR (fold reversal): Dox co-administered
Method: (§1) Simultaneously, viability controls were run with no addition of the dissolution solvent. The cells were incubated at 37 °C at 5% CO2 for 48 h and the same protocol described above was followed. The potency of the compounds was established by means of the fold reversal (FR) values calculated from dividing the IC50 of Dox alone by the IC50 of Dox with different concentrations of each compound tested.

[5] = system: K562 cells; experiment: Doxorubicin resistance reversal assay in K562 (MTT); type: cell-based; details: K562, 1.56 µM
Method: as §1

[6] = system: K562 cells; experiment: Doxorubicin intracellular accumulation assay in K562 (flow cytometry); details: K562, versus negative control
[7] = system: K562/Dox cells; experiment: MTT colorimetric assay, cytotoxicity on resistant K562/Dox; type: cell-based; details: K562/Dox, MTT; for toxicity: 50 μM; for IC50: Homo sapiens, K562, 48 h, 48 h, read-out: IC50 K562/Dox
Method: This colorimetric technique is based on the ability of viable cells to capture MTT and reduce it through the mitochondrial enzyme succinic dehydrogenase to its insoluble form, formazan crystals. The target compounds dissolved in DMSO (0.5% v/v as final concentration which was non-toxic to cells) at a maximum concentration of 50 µM were exposed to 5 × 10^4 cells distributed in a 96-well plate and incubated for 48 h. […] After this time, the plate was centrifuged at 2000 rpm for 10 min, and 100 µL of DMSO was added to dissolve the formazan crystals formed. Absorbance (Abs) was read at a wavelength of 595 nm in an iMark microplate reader (Bio-Rad, USA). The percentages of cytotoxicity were determined as compared to DMSO treated control cells, which were considered 100% viable as showing the same level of growth as the untreated cells.

[8] = Cytotoxicity on peripheral blood mononuclear cells (MTT); type: cell-based, human; details: human
Method: . PBMC were isolated by the Ficoll-Hypaque density gradient centrifugation technique of fresh heparinized blood from healthy human volunteers. The protocol was previously approved by the Catholic University of Córdoba Research Ethics Board. Signed informed consents were obtained from donors. All methods were performed in accordance with the relevant guidelines and regulations. Briefly, 1 × 10^5 cells/well in a 96-well plate were incubated with 10 µg/mL PHA, in the presence of the corresponding concentrations of the compounds or 0.5% v/v DMSO (negative control) for 48 h, and processed as above described for the MTT method. The percentages of inhibition on cell proliferation were determined by comparison with negative controls, and the corresponding IC50 values were calculated from the best fit of the concentration-dependent inhibition curves in GraphPad Prism 7.

[9] = system: K562 cells; experiment: Rhodamine 123 intracellular accumulation assay in K562 (flow cytometry); details: K562, maximum concentration assayed
[10] = system: K562 cells; experiment: MTT colorimetric assay, cytotoxicity on sensitive K562; type: cell-based; details: for toxicity: 50 μM, K562, MTT; for IC50: MTT, 48 h, K562
Method: This colorimetric technique is based on the ability of viable cells to capture MTT and reduce it through the mitochondrial enzyme succinic dehydrogenase to its insoluble form, formazan crystals. […] After this time, the plate was centrifuged at 2000 rpm for 10 min, and 100 µL of DMSO was added to dissolve the formazan crystals formed. Absorbance (Abs) was read at a wavelength of 595 nm in an iMark microplate reader (Bio-Rad, USA).

[11] = molecular target: T1, P-gp; experiment: Rhodamine 123 intracellular accumulation assay in K562/Dox (flow cytometry); details: for FAR (fluorescence activity ratio): Rho123, K562/Dox

SMILES	toxicity [7]	IC50 [7] [µM]	toxicity [10]	IC50 ([10]; Homo sapiens, K562, 48 h) [µM]	FAR (fluorescence activity ratio) ([11]; 0.78 µM)	FAR (fluorescence activity ratio) ([11]; 1.56 µM)	FAR (fluorescence activity ratio) ([11]; 3.12 µM)	FAR (fluorescence activity ratio) ([11]; 6.25 µM)	MEC (minimum effective concentration) ([11]; Rho123 accumulation, K562/Dox)	FAR (fluorescence activity ratio) ([11]; 25 µM)	FAR (fluorescence activity ratio) ([11]; 50 µM)	FAR (fluorescence activity ratio) ([11]; 12.50 µM)	further results
C=C(C)[C@@H]1CC[C@]2(C)CC[C@]3(C)[C@H](CC[C@@H]4[C@@]5(C)CC[C@H](O)C(C)(C)[C@@H]5CC[C@]43C)[C@@H]12 [lupeol]	–	–	–	–	–	–	–	–	–	–	–	–	effective concentration, P-gp inhibition [1]: 100 µM
CC1(C)CC[C@]2(C(=O)O)CC[C@]3(C)C(=CC[C@@H]4[C@@]5(C)CC[C@H](O)C(C)(C)[C@@H]5CC[C@]43C)[C@@H]2C1 [oleanolic acid]	–	–	–	–	–	–	–	–	–	–	–	–	effective concentration, P-gp inhibition [1]: 2 µM
C=C(C)[C@@H]1CC[C@]2(COC(=O)N3CCN(C)CC3)CC[C@]3(C)[C@H](CC[C@@H]4[C@@]5(C)CC[C@H](O)C(C)(C)[C@@H]5CC[C@]43C)[C@@H]12 [Compound 6i]	more than 55%	33.91 ± 0.09	more than 55%	19.1	1.30 ± 0.06	1.41 ± 0.14	1.71 ± 0.06	2.04 ± 0.05	0.39 µM	–	–	–	erythrocyte hemolysis [2]: devoid of toxic effects; also recorded: Neither compound induced erythrocyte hemolysis; MEC, Dox accumulation [3]: 0.098 µM; FAR, Dox accumulation ([3]; 25 µM): 1.27 ± 0.03; potency for restoring the cytotoxicity of Dox relative to compound 1 (times) [4]: nearly twice; MEC, Dox resistance reversal ([4]; K562/Dox): 0.19 µM; FR (fold reversal) ([4]; K562/Dox, 0.19 µM): 1.39 ± 0.07; FR (fold reversal) ([4]; K562/Dox, 0.78 µM): 1.63 ± 0.06; FR (fold reversal) ([4]; K562/Dox, 1.56 µM): 2.69 ± 0.39; reversal effect on parental K562 [5]: did not show a reversal effect; Dox accumulation in K562 [6]: did not increase Dox accumulation; IC50 at 48 h [8]: 26.4 ± 2.88 µM; viability at 48 h, 50 µM [8]: 64%; Rho123 accumulation in K562 [9]: did not increase Rho123 accumulation; IC50 [10]: 19.1 ± 0.87 µM; FAR (fluorescence activity ratio) ([11]; 0.19 µM): 1.08 ± 0.05; dose-dependent behavior, b ([11]; Rho123 accumulation, K562/Dox): 40.14
C=C(C)[C@@H]1CC[C@]2(COC(=O)NCCc3ccc(OC)cc3)CC[C@]3(C)[C@H](CC[C@@H]4[C@@]5(C)CC[C@H](O)C(C)(C)[C@@H]5CC[C@]43C)[C@@H]12 [Compound 6e]	–	> 50	–	> 50	–	–	–	–	50 µM and 50.0 µM	1.04 ± 0.11	1.53 ± 0.09	–	–
C=C(C)[C@@H]1CC[C@]2(COC(=O)NCCc3ccc(OC)c(OC)c3)CC[C@]3(C)[C@H](CC[C@@H]4[C@@]5(C)CC[C@H](O)C(C)(C)[C@@H]5CC[C@]43C)[C@@H]12 [Compound 6f]	–	> 50	–	> 50	1.02 ± 0.02	1.13 ± 0.04	1.25 ± 0.02	1.45 ± 0.16	1.56 µM	1.95 ± 0.25	2.27 ± 0.31	1.73 ± 0.18	–
C=C(C)[C@@H]1CC[C@]2(C(=O)NCc3cc(OC)c(OC)c(OC)c3)CC[C@]3(C)[C@H](CC[C@@H]4[C@@]5(C)CC[C@H](O)C(C)(C)[C@@H]5CC[C@]43C)[C@@H]12 [Compound 4]	more than 55%	34.4 ± 2.59	more than 55%	19.7 ± 0.59	–	–	–	–	25 µM and 25.0 µM	–	–	1.04 ± 0.01	fold less active against P-gp than carbamate 6d ([11]; ratio of MEC values, Rho123): 32
C=C(C)[C@@H]1CC[C@]2(COC(=O)N3CCc4cc(OC)c(OC)cc4C3)CC[C@]3(C)[C@H](CC[C@@H]4[C@@]5(C)CC[C@H](O)C(C)(C)[C@@H]5CC[C@]43C)[C@@H]12 [Compound 6m]	–	> 50	–	> 50	–	1.03 ± 0.12	1.17 ± 0.03	1.27 ± 0.09	3.12 µM	1.52 ± 0.09	2.06 ± 0.15	1.32 ± 0.14	–
C=C(C)[C@@H]1CC[C@]2(COC(=O)N3CCNCC3)CC[C@]3(C)[C@H](CC[C@@H]4[C@@]5(C)CC[C@H](O)C(C)(C)[C@@H]5CC[C@]43C)[C@@H]12 [Compound 6h]	more than 55%	12.5 ± 0.5	more than 55%	4.6 ± 0.24	–	–	–	1.06 ± 0.08	–	–	–	–	Rho123 accumulation / anti-P-gp activity ([11]; K562/Dox, highest concentrations tested (50 or 6.25 µM)): did not induce statistically significant Rho123 accumulation
C=C(C)[C@@H]1CC[C@]2(COC(=O)NCCN3CCNCC3)CC[C@]3(C)[C@H](CC[C@@H]4[C@@]5(C)CC[C@H](O)C(C)(C)[C@@H]5CC[C@]43C)[C@@H]12 [Compound 6k]	more than 55%	27 ± 1.34	more than 55%	9.4	1.03 ± 0.17	1.35 ± 0.08	1.48 ± 0.07	2.24 ± 0.24	1.56 µM	–	–	–	IC50 [10]: 9.44 ± 0.08 µM
